Consider 22 molecules from paper PMC10573254, “Development of Novel Class of Phenylpyrazolo[3,4-d]pyrimidine-Based Analogs with Potent Anticancer Activity and Multitarget Enzyme Inhibition Supported by Docking Studies” (International Journal of Molecular Sciences, 2023).

One series deals with MCF-7. In words: MTT cytotoxicity assay, MCF-7. Type of series: cell-based. The conditions noted are these: Homo sapiens, MCF7; MTT, breast cancer cells; read-out: IC50 MCF-7. (Tetrazolium dyes change colour on reduction, which living cells bring about.)
The next series has as its system HePG-2. The series is described as follows: MTT cytotoxicity assay, HePG-2. Type of series: cell-based. The conditions noted are these: Homo sapiens, HepG2. The protocol: (§1) The cytotoxic activity was assessed using the 3-(4,5-dimethylthiazol-2-yl)-2,5-diphenyl tetrazolium bromide (MTT) colorimetric assay, as reported previously. Doxorubicin was used as a reference standard, and DMSO was used as a negative control. Briefly, the designated cell lines were cultured at a concentration of 5 × 10^4 cell/well in 96-well plates. The cells were incubated for 24 h under optimum conditions. Following this, the designated molecules were introduced (in serial dilutions from 0 to 50 μg/mL), and the cells were incubated for an additional 24 h. Following this, the media were withdrawn, and 100 μL of fresh medium was added. Then, 10 µL of the 12 mM MTT stock solution was administered to each well. The plates were then incubated for 4 h. […] An 85-μL aliquot of the media was removed from the wells, and 50 µL of DMSO was added to each well and mixed thoroughly with the pipette and incubated at 37 °C for 10 min. Then, the optical density was measured at 590 nm with the microplate reader (Sunrise, TECAN, Inc., Morrisville, NC, USA).

Another series deals with HCT-116. In words: MTT cytotoxicity assay, HCT-116. Type of series: cell-based. The following applies: Homo sapiens, HCT-116, read-out: IC50 HCT-116; MTT, colon cancer cells.
A further series relates to WI-38. In words: MTT assay on normal cell line WI-38. It counts as cell-based. The conditions noted are these: Homo sapiens, WI-38, MTT, normal human diploid fibroblasts. The protocol:
According to our design, the tested compounds are classified into four categories based on the length and the chemotype of the spacer (Figure 3). In the first category, we used monosubstituted hydrazone linker. […] The second category is represented by […] hydrazone linker.
as §1

In another series the target is T1, Topo-II (Homo sapiens, UniProt Q02880).
T1 construct: purchased
T1 sequence (Q02880 2-1626): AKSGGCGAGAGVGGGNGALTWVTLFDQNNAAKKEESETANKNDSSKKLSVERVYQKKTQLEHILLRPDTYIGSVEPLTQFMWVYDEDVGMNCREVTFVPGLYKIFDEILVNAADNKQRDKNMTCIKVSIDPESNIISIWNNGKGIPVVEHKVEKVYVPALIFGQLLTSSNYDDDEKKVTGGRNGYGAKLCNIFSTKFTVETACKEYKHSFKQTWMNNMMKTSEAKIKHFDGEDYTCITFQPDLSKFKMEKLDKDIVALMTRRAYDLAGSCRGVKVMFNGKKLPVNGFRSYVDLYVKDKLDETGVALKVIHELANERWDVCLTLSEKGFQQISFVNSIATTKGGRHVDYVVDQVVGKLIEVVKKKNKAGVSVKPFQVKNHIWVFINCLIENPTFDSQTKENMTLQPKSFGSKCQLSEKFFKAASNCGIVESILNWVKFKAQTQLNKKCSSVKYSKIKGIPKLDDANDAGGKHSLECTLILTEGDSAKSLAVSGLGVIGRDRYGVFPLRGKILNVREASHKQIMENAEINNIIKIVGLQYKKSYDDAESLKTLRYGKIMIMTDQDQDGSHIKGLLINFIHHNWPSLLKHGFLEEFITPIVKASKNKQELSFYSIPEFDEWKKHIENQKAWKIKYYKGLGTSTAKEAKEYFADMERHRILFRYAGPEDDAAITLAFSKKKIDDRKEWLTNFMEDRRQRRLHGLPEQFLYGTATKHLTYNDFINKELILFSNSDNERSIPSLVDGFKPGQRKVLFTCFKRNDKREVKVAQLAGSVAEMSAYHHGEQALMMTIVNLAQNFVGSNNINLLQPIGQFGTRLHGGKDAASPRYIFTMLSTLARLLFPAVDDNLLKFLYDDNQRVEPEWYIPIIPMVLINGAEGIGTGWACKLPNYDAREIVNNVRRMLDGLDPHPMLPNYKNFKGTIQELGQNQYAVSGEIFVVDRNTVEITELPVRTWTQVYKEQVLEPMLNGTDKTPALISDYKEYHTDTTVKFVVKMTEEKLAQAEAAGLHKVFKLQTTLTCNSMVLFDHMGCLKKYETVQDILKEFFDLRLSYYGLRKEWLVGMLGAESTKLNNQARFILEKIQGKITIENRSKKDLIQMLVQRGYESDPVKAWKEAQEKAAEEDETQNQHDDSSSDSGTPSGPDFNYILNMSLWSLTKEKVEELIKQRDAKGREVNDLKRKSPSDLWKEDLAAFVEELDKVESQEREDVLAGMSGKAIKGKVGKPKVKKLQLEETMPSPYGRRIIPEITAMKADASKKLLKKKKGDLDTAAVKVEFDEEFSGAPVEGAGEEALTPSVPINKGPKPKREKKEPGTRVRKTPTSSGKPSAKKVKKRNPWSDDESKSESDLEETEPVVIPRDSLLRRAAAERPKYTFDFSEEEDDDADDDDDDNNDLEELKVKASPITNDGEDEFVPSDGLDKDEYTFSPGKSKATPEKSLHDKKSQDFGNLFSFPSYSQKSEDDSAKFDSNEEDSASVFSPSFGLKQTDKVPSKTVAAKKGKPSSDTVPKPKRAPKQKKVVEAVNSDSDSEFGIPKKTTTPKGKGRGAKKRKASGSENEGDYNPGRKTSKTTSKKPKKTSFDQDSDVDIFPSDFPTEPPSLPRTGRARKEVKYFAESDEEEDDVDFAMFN
In words: In vitro Topo II inhibitory assay. Type of series: biochemical. As for the experimental part:
Curve fitting was performed using GraphPad Prism.
(1 picture or pasted object on this page, not shown here)

The mark [1] stands for this setting: MTT, liver cancer cells, read-out: IC50 HePG-2.

Read-outs that look alike come from different tables or passages of the source.

Description for HCT-116: (§2) The cytotoxic activity was assessed using the 3-(4,5-dimethylthiazol-2-yl)-2,5-diphenyl tetrazolium bromide (MTT) colorimetric assay, as reported previously [62, 63]. […] Briefly, the designated cell lines were cultured at a concentration of 5 × 10^4 cell/well in 96-well plates. The cells were incubated for 24 h under optimum conditions. Following this, the designated molecules were introduced (in serial dilutions from 0 to 50 μg/mL), and the cells were incubated for an additional 24 h. Following this, the media were withdrawn, and 100 μL of fresh medium was added. Then, 10 µL of the 12 mM MTT stock solution was administered to each well. The plates were then incubated for 4 h. Then, the cells were exposed to different compounds at the desired concentrations (0.01, 0.1, 1, 10, and 100 µM) or to 1% dimethyl sulfoxide (DMSO) for 48 and 72 h. […] Then, the optical density was measured at 590 nm with the microplate reader (Sunrise, TECAN, Inc., Morrisville, NC, USA).
Description for MCF-7: as §2

Molecule `CC(=NNc1nc(C)nc2c1cnn2-c1ccccc1)c1ccc(N)cc1` [Compound 5j, 4-(1-(2-(6-Methyl-1-phenyl-1H-pyrazolo[3,4-d]pyrimidin-4-yl)hydrazineylidene)ethyl)aniline] registered a melting point of 221 to 223 °C. Also, the IC50 with MCF-7 was 36 ± 2.4 µM. Besides, in the series with HePG-2 (setting [1]), the 50% inhibitory concentration (IC50) was determined as 44.3 ± 2.9 µM. Further, in the series with HCT-116, the IC50 worked out at 21.5 ± 1.5 µM.

In the case of `Cc1nc2c(cnn2-c2ccccc2)c2nnc(C(Cl)(Cl)Cl)n12` [Compound 6c, 5-Methyl-7-phenyl-3-(trichloromethyl)-7H-pyrazolo[4,3-e][1,2,4]triazolo[4,3-c]pyrimidine], the melting point lay in the range of 250 to 252 °C. The IC50 in the series with MCF-7 worked out at 54.2 ± 3.4 µM. In the series on HePG-2 (setting [1]), the IC50 worked out at 56.2 ± 3.5 µM. Moreover, the IC50 in the series on HCT-116 was found to be 37.2 ± 2.4 µM.

`CCNC(=S)NNc1nc(C)nc2c1cnn2-c1ccccc1` [Compound 9a, N-Ethyl-2-(6-methyl-1-phenyl-1H-pyrazolo[3,4-d]pyrimidin-4-yl)hydrazinecarbothioamide]: the melting point fell in the range of 278 to 280 °C. The IC50 with MCF-7 was 7.61 ± 0.4 µM. For the same molecule, the IC50 with HePG-2 (setting [1]) was determined as 5.97 ± 0.3 µM. In the series on HCT-116, the IC50 was found to be 2.96 ± 0.1 µM.

Take `CCCCNC(=S)NNc1nc(C)nc2c1cnn2-c1ccccc1` [Compound 9c, N-Butyl-2-(6-methyl-1-phenyl-1H-pyrazolo[3,4-d]pyrimidin-4-yl)hydrazinecarbothioamide]: the melting point is 270 to 272 °C. Besides, the IC50 in the series with MCF-7 was found to be 31.4 ± 1.9 µM. Besides, in the series on HePG-2 (setting [1]), the IC50 was determined as 20.3 ± 1.6 µM. In the series on HCT-116, the IC50 was found to be 16.6 ± 1.2 µM.

Molecule `CC(=O)CC(C)=Nc1nc(C)nc2c1cnn2-c1ccccc1` [Compound 6d, 4-((6-Methyl-1-phenyl-1H-pyrazolo[3,4-d]pyrimidin-4-yl)imino)pentan-2-one] came in with a melting point of 240 to 242 °C. In addition, in the series with MCF-7, the IC50 is 84.6 ± 4.6 µM. Also, the 50% inhibitory concentration (IC50) in the series on HePG-2 (setting [1]) was 89.2 ± 4.7 µM. For the same molecule, the IC50 in the series on HCT-116 stood at 93.4 ± 5.2 µM.

As for `COc1ccc(C=NNc2nc(C)nc3c2cnn3-c2ccccc2)cc1` [Compound 5d], the melting point is 227 to 229 °C. For the same molecule, in the series on MCF-7, the IC50 turned out to be 19.4 ± 1.3 µM. Besides, in the series on HePG-2 (setting [1]), the IC50 came out at 18.3 ± 1.5 µM. Further, the IC50 in the series on HCT-116 was determined as 9.87 ± 0.7 µM.

Consider `Cc1nc(NN2C(=O)C=CC2=O)c2cnn(-c3ccccc3)c2n1` [Compound 8, 1-((6-Methyl-1-phenyl-1H-pyrazolo[3,4-d]pyrimidin-4-yl)amino)-1H-pyrrole-2,5-dione], for which the IC50 in the series on MCF-7 worked out at 79.5 ± 4.4 µM; in the series with HePG-2 (setting [1]), 78.5 ± 4.3 µM; in the series with HCT-116, 66.3 ± 3.5 µM.

`CC(=NNc1nc(C)nc2c1cnn2-c1ccccc1)c1ccc(Cl)cc1Br` [Compound 5l, 4-(2-(1-(2-Bromo-4-chlorophenyl)ethylidene)hydrazineyl)-6-methyl-1-phenyl-1H-pyrazolo[3,4-d] pyrimidine] displayed a melting point of 257 to 259 °C. The IC50 in the series with MCF-7 worked out at 29.2 ± 1.8 µM. Moreover, in the series with HePG-2 (setting [1]), the IC50 came to 17.1 ± 1.3 µM. Moreover, the IC50 in the series with HCT-116 amounted to 14.6 ± 1.1 µM.

`Cc1nc(NN=Cc2ccc(Cl)cc2)c2cnn(-c3ccccc3)c2n1` [Compound 5c, 4-(2-(4-Chlorobenzylidene)hydrazinyl)-6-methyl-1-phenyl-1H-pyrazolo[3,4-d]pyrimidine] returned a melting point of 233 to 235 °C. In the series on MCF-7, the IC50 came out at 66.6 ± 3.8 µM. Moreover, in the series on HePG-2 (setting [1]), the IC50 is 83.7 ± 4.4 µM. In the series with HCT-116, the IC50 was determined as 39.5 ± 2.6 µM.

`COc1cccc2c1C(=O)c1c(O)c3c(c(O)c1C2=O)C[C@@](O)(C(=O)CO)C[C@@H]3O[C@H]1C[C@H](N)[C@H](O)[C@H](C)O1` [DOX, Doxorubicin, reference compound]: the IC50 with HePG-2 (24 h incubation, read-out: IC50 HePG-2 24 h) came out at 4.5 ± 0.2 µM; with HePG-2 (48 h incubation, read-out: IC50 HePG-2 48 h), 3.24 ± 0.2 µM; in the series on HePG-2 (72 h incubation, read-out: IC50 HePG-2 72 h), 1.07 ± 0.1 µM; with HePG-2 (setting [1]), 4.5 ± 0.2 µM; with WI-38, 10.6 ± 0.47 µM.

The molecule `COc1ccc(C(C)=NNc2nc(C)nc3c2cnn3-c2ccccc2)cc1` [Compound 5k, 4-(2-(1-(4-Methoxyphenyl)ethylidene)hydrazinyl)-6-methyl-1-phenyl-1H-pyrazolo[3,4-d]pyrimidine] gave a melting point of 235 to 237 °C. Further, in the series on MCF-7, the IC50 was 88.3 ± 4.7 µM. Besides, the IC50 in the series with HePG-2 (setting [1]) was determined as 91.6 ± 5.1 µM. The IC50 with HCT-116 came out at 78 ± 4.2 µM.

Regarding `CCCNC(=S)NNc1nc(C)nc2c1cnn2-c1ccccc1` [Compound 9b, 2-(6-Methyl-1-phenyl-1H-pyrazolo[3,4-d]pyrimidin-4-yl)-N-propylhydrazinecarbothioamide], the results for the IC50 with MCF-7, with HePG-2 (setting [1]) and in the series on HCT-116 were 34.2 ± 2 µM, 23.9 ± 1.8 µM and 17.6 ± 1.3 µM, respectively.

`Cc1nc2c(cnn2-c2ccccc2)c2nncn12` [Compound 6a, 5-Methyl-7-phenyl-7H-pyrazolo[4,3-e][1,2,4]triazolo[4,3-c]pyrimidine] had a melting point of 250 to 252 °C. Further, the IC50 in the series with MCF-7 worked out at 49.6 ± 3.1 µM. In addition, the IC50 in the series on HePG-2 (setting [1]) is 37.5 ± 2.7 µM. Besides, in the series with HCT-116, the IC50 is 34.6 ± 2.2 µM.

The molecule `Cc1nc(NN=Cc2ccccc2)c2cnn(-c3ccccc3)c2n1` [Compound 5a, 4-(2-Benzylidenehydrazinyl)-6-methyl-1-phenyl-1H-pyrazolo[3,4-d]pyrimidine] showed a melting point of 160 to 162 °C. Also, the IC50 in the series on MCF-7 came out at 21.1 ± 1.5 µM. Further, the IC50 in the series on HePG-2 (setting [1]) turned out to be 15.1 ± 1.2 µM. The IC50 in the series with HCT-116 turned out to be 11.7 ± 0.9 µM.

In the case of `Cc1nc(NN2C(=O)CCC2=O)c2cnn(-c3ccccc3)c2n1` [Compound 7, 1-((6-Methyl-1-phenyl-1H-pyrazolo[3,4-d]pyrimidin-4-yl)amino)pyrrolidine-2,5-dione], the melting point lay within 280 to 282 °C. Also, the IC50 with MCF-7 worked out at 81 ± 4.6 µM. The IC50 in the series on HePG-2 (setting [1]) turned out to be 87.2 ± 4.5 µM. Also, the IC50 in the series with HCT-116 worked out at 73.5 ± 3.8 µM.

`COc1ccccc1C=NNc1nc(C)nc2c1cnn2-c1ccccc1` [Compound 5e, 4-(2-(2-Methoxybenzylidene)hydrazineyl)-6-methyl-1-phenyl-1H-pyrazolo[3,4-d]pyrimidine] had a melting point of 220 to 222 °C. For the same molecule, in the series with MCF-7, the IC50 came out at 16.1 ± 1.1 µM. In the series on HePG-2 (setting [1]), the IC50 turned out to be 13.8 ± 1 µM. Further, the IC50 with HCT-116 amounted to 8.15 ± 0.5 µM.

Regarding `COc1cc([C@@H]2c3cc4c(cc3[C@@H](O[C@@H]3O[C@@H]5CO[C@@H](C)O[C@H]5[C@H](O)[C@H]3O)[C@H]3COC(=O)[C@H]23)OCO4)cc(OC)c1O` [Etoposide, reference compound], the “TOPO IiB %inh at conc 12.5” value on Topo-II (conc 12.5, unit not given) is reported as 7.5%. Further, on Topo-II (conc 25, unit not given), the “TOPO IiB %inh at conc 25” value is 20%. In addition, the “TOPO IiB %inh at conc 50” value at Topo-II (conc 50, unit not given) was 39%. At Topo-II (conc 100, unit not given), the “TOPO IiB %inh at conc 100” value stood at 69%.

`Cc1nc(NN=Cc2c(Cl)cccc2Cl)c2cnn(-c3ccccc3)c2n1` [Compound 5g, 4-(2-(2,6-Dichlorobenzylidene)hydrazineyl)-6-methyl-1-phenyl-1H-pyrazolo[3,4-d]pyrimidine] yielded a melting point of 255 to 257 °C. Besides, the IC50 in the series on MCF-7 is above 100 µM. In addition, the IC50 in the series with HePG-2 (setting [1]) is above 100 µM. Besides, the IC50 in the series with HCT-116 is above 100 µM.

The molecule `Cc1nc2c(cnn2-c2ccccc2)c2nnc(C(F)(F)F)n12` [Compound 6b, 5-Methyl-7-phenyl-3-(trifluoromethyl)-7H-pyrazolo[4,3-e][1,2,4]triazolo[4,3-c]pyrimidine] registered a melting point of 267 to 269 °C. Further, the IC50 with MCF-7 is 39.1 ± 2.5 µM. The IC50 in the series on HePG-2 (setting [1]) was found to be 25.2 ± 2 µM. The IC50 with HCT-116 is 26.1 ± 1.8 µM.

`C=CNC(=S)NNc1nc(C)nc2c1cnn2-c1ccccc1` [Compound 9d, 2-(6-Methyl-1-phenyl-1H-pyrazolo[3,4-d]pyrimidin-4-yl)-N-vinylhydrazine-1-carbothioamide] returned a melting point of 268 to 270 °C. Besides, in the series on MCF-7, the IC50 was 35.2 ± 2.2 µM. For the same molecule, the IC50 in the series with HePG-2 (setting [1]) is 32.6 ± 2.4 µM. Also, in the series with HCT-116, the IC50 was 19.7 ± 1.4 µM.

The molecule `Cc1nc(NN=Cc2ccc([N+](=O)[O-])cc2)c2cnn(-c3ccccc3)c2n1` [Compound 5f, 6-Methyl-4-(2-(4-nitrobenzylidene)hydrazineyl)-1-phenyl-1H-pyrazolo[3,4-d]pyrimidine] came in with a melting point of 250 to 252 °C. In addition, in the series on MCF-7, the IC50 is above 100 µM. For the same molecule, the IC50 in the series with HePG-2 (setting [1]) is above 100 µM. The IC50 in the series with HCT-116 worked out at 89.7 ± 4.8 µM.

As for `Cc1nc(NN=CC=Cc2ccccc2)c2cnn(-c3ccccc3)c2n1` [Compound 5h, 6-Methyl-1-phenyl-4-(2-(-3-phenylallylidene)hydrazineyl)-1H-pyrazolo[3,4-d]pyrimidine], the melting point fell in the range of 241 to 243 °C. In the series on MCF-7, the IC50 was above 100 µM. Besides, the IC50 with HePG-2 (setting [1]) is above 100 µM. Besides, in the series with HCT-116, the IC50 came to 76.8 ± 4.1 µM.

The term IC50 denotes the midpoint of a concentration-inhibition curve. What is called melting point is the temperature of the solid-liquid transition.
